Results as given in BindingDB's records for doi:10.1021/acs.jmedchem.3c00566 (Sichuan University, 2023).
Blank lines part the entries; values can stand above or below the compound they belong to.

Assays:
[1] = biological target: Cyclin-dependent kinase 2 (Homo sapiens, UniProt P24941); assay: Inhibition of CDK2 (unknown origin) expressed in baculovirus infected Sf9 cells in presence of [gamma-33p]-ATP and ATP
[2] = biological target: Cyclin-dependent kinase 5/p25; assay: Inhibition of CDK5/p25 (unknown origin)
[3] = biological target: Cyclin-dependent kinase 2/cyclin A; assay: Inhibition of CDK2/cyclin A (unknown origin)

IC50 [1]: 9 nM
Structure (SMILES): CC(C)c1n[nH]c2c(NCc3ccc(-c4ccccn4)cc3)nc(NCC(C)(C)O)nc12

IC50 [2]: 6.8 nM
Structure (SMILES): Cc1cc(S(=O)(=O)NCCOCCOCCOCCOCCNc2cccc3c2C(=O)N(C2CCC(=O)NC2=O)C3=O)ccc1Nc1ncc(Br)c(Nc2cccc(F)c2C(N)=O)n1 (stereo not drawn)

IC50 [3]: 10000 nM
Structure (SMILES): O=C(Nc1csc(Cc2c(Cl)cccc2Cl)n1)NN1CCOCC1 [1-[2-(2,6-Dichloro-benzyl)-thiazol-4-yl]-3-morpholin-4-yl-urea]
